Test results taken from ChEMBL document CHEMBL3881525, “Analogs of dehydrophenylahistins and their therapeutic use” (2007).
Values after ≈ are worked out from the molar mass of the structure shown. Active and inactive are the calls of the source. The calls are words filed in the database; no cut-off is given here.

Key:
Aspergillus fumigatus [1] = assay: Antifungal activity against Aspergillus fumigatus isolate 1 measured after 48 hrs by broth dilution method; format: functional; details: isolate 1, 48 h
MDA-MB-231 = assay: Ratio of IC50 for human CCD-27sk cells to IC50 for human MDA-MB-231 cells
[2] = Cytotoxicity against human NCI-H292 cells assessed as reduction in cell viability measured after 48 hrs by resazurin dye-based fluorometric analysis relative to control; format: functional
[3] = Cytotoxicity against human OVCAR3 cells assessed as reduction in cell viability measured after 48 hrs by resazurin dye-based fluorometric analysis relative to control; format: functional, OVCAR-3
[4] = Cytotoxicity against human HT-29 cells assessed as reduction in cell viability measured after 48 hrs by resazurin dye-based fluorometric analysis relative to control; format: functional
MES-SA [5] = assay: Ratio of IC50 for taxol-sensitive human […] to IC50 for taxol-sensitive human […] pretreated with p-gp inhibitor cyclosporinA followed by compound addition; format: functional
[6] = Cytotoxicity against mouse B16F10 cells assessed as reduction in cell viability measured after 48 hrs by resazurin dye-based fluorometric analysis; format: functional; details: B16-F10, 48 h
NCI-H292 = assay: Ratio of IC50 for human CCD-27sk cells to IC50 for human NCI-H292 cells
Candida albicans [7] = assay: Antifungal activity against Candida albicans ATCC 10231 measured after 48 hrs by broth dilution method; format: functional; details: ATCC 10231, 48 h
Aspergillus fumigatus [8] = assay: Fungicidal activity against Aspergillus fumigatus isolate 2 measured after 48 hrs by broth dilution method; format: functional; details: isolate 2, 48 h
[9] = Cytotoxicity against human HT-29 cells assessed as reduction in cell viability measured after 48 hrs by resazurin dye-based fluorometric analysis; format: functional; details: Homo sapiens, HT-29, 48 h
HUVEC = assay: Induction of monolayer permeability in HUVEC assessed as colchicin transport at 2 uM measured up to 1 hr; format: functional, cell-based; details: Homo sapiens
[10] = Cytotoxicity against human PC3 cells assessed as reduction in cell viability measured after 48 hrs by resazurin dye-based fluorometric analysis relative to control; format: functional, PC-3; parameters: concentration or dose not given beside the values
[11] = Cytotoxicity against human NCI-H292 cells assessed as reduction in cell viability measured after 48 hrs by resazurin dye-based fluorometric analysis; format: functional; details: NCI-H292, 48 h
Candida albicans [12] = assay: Antifungal activity against Candida albicans 90028 measured after 48 hrs by broth dilution method; format: functional; details: Candida albicans, 90028, 48 h
Aspergillus fumigatus [13] = assay: Antifungal activity against Aspergillus fumigatus isolate 2 measured after 48 hrs by broth dilution method; format: functional; details: isolate 2, 48 h
[14] = Antiproliferative activity against human mitoxantrone-sensitive HL60 cells; format: functional, cell-based; details: HL-60
B16-F10 = assay: Ratio of IC50 for human CCD-27sk cells to IC50 for mouse B16F10 cells
PC-3 = assay: Ratio of IC50 for human CCD-27sk cells to IC50 for human PC3 cells
Jurkat = assay: Induction of apoptosis in human Jurkat cells assessed as caspase3 activation; format: functional, cell-based
[15] = Cytotoxicity against mouse B16F10 cells assessed as reduction in cell viability measured after 48 hrs by resazurin dye-based fluorometric analysis relative to control; format: functional, B16-F10
[16] = Antiproliferative activity against taxol-resistant human MES-SA/Dx5 cells expressing MDR1 mRNA and P-gp; format: functional, cell-based
[17] = Cytotoxicity against human PC3 cells assessed as reduction in cell viability measured after 48 hrs by resazurin dye-based fluorometric analysis; format: functional; details: PC-3, 48 h
[18] = Antifungal activity against Candida glabrata measured after 48 hrs by broth dilution method; format: functional; details: Nakaseomyces glabratus
[19] = Cytotoxicity against human CCD-27Sk cells assessed as reduction in cell viability measured after 48 hrs by resazurin dye-based fluorometric analysis
[20] = Antiproliferative activity against taxol-resistant human MES-SA/Dx5 cells expressing MDR1 mRNA and P-gp pretreated with p-gp inhibitor cyclosporinA followed by compound addition; format: functional, cell-based
[21] = Cytotoxicity against human Jurkat cells; format: functional, cell-based
[22] = Antiproliferative activity against human mitoxantrone-resistant HL60/MX2 cells; format: functional, cell-based; details: HL-60
HT-29 = assay: Ratio of IC50 for human CCD-27sk cells to IC50 for human HT-29 cells
[23] = Antiproliferative activity against taxol-sensitive human MES-SA cells […]; format: functional, cell-based
MCF7 [24] = assay: Potentiation of taxotere-induced antitumor activity against human MCF7 cells xenografted in nude mouse assessed as tumor growth inhibition at 7.5 mg/kg, ip qd for 4 days measured on day 7; format: functional, organism-based
[25] = Antitumor activity against human HT-29 cells xenografted in nude mouse assessed as tumor growth inhibition at 30 mg/kg, ip administered every third day for 5 days in presence of CPT-11 relative to control; format: functional; details: HT-29, ip, 120 h, read-out: TGI
HL-60 = assay: Ratio of IC50 for human mitoxantrone-sensitive HL60 cells to IC50 for human mitoxantrone-resistant HL60/MX2 cells; format: functional
[26] = Antiproliferative activity against taxol-sensitive human MES-SA cells pretreated with p-gp inhibitor cyclosporinA followed by compound addition; format: functional, cell-based
[27] = Cytotoxicity against human MDA-MB-231 cells assessed as reduction in cell viability measured after 48 hrs by resazurin dye-based fluorometric analysis; format: functional; details: MDA-MB-231, 48 h
MES-SA/Dx5 = assay: Ratio of IC50 for taxol-resistant human MES-SA/Dx5 cells expressing MDR1 mRNA and P-gp to IC50 for taxol-resistant human MES-SA/Dx5 cells expressing MDR1 mRNA and P-gp pretreated with p-gp inhibitor cyclosporinA followed by compound addition; format: functional
[28] = Cytotoxicity against human CCD-27Sk cells assessed as reduction in cell viability measured after 48 hrs by resazurin dye-based fluorometric analysis relative to control; details: read-out: INH
[29] = Cytotoxicity against human OVCAR3 cells assessed as reduction in cell viability measured after 48 hrs by resazurin dye-based fluorometric analysis; format: functional; details: OVCAR-3, 48 h
[30] = Drug level assessed as human hepatic cytochrome P450-mediated compound formation treated with (+/-)phenylahistin; format: ADME
HeLa [31] = assay: Effect on cell cycle progression in human HeLa cells assessed as […] cells at 200 nM; format: functional, cell-based
MCF7 [32] = assay: Ratio of IC50 for human taxol-sensitive MCF7 cells to IC50 for human taxol-resistant MCF7/ADR cells; format: functional
HeLa [33] = assay: Effect on cell cycle progression in human HeLa cells assessed as reduction in 2N cells at 200 nM; format: functional, cell-based
MES-SA [34] = assay: Ratio of EC50 for taxol-resistant human MES-SA/DX5 cells expressing MDR1 mRNA and P-gp to EC50 for taxol-sensitive human MES-SA cells; format: functional
MES-SA [35] = assay: Ratio of IC50 for taxol-sensitive human […] to IC50 for taxol-resistant human MES-SA/DX5 cells expressing MDR1 mRNA and P-gp; format: functional
[36] = Antiproliferative activity against human taxol-sensitive MCF7 cells; format: functional, cell-based
[37] = Antitumor activity against human MDA-MB-231 cells xenografted in nude mouse assessed as tumor growth inhibition at 7.5 mg/kg, ip qd for 5 days relative to control; format: functional; details: MDA-MB-231, ip, 120 h, read-out: TGI
[38] = Antitumor activity against mouse B16F10 cells allografted in nude mouse assessed as mean growth inhibition at 10 mg/kg, iv qd for 5 days relative to control; format: functional, B16-F10; parameters: scale not given: the % may be the effect or the level left
[39] = Antitumor activity against human A549 cells xenografted in nude mouse assessed as tumor growth inhibition at 7.5 mg/kg, ip qd for 5 days relative to control; format: functional; details: 120 h, read-out: TGI
[40] = Antitumor activity against human DU145 cells xenografted in nude mouse assessed as tumor growth inhibition at […], iv administered every third day measured on day 28 relative to control; format: functional; details: DU-145, iv, 672 h, read-out: TGI
[41] = Antitumor activity against human A549 cells xenografted in nude mouse assessed as tumor growth inhibition at […], ip qd for 5 days relative to control; format: functional; details: 120 h, read-out: TGI
[42] = Antitumor activity against human MCF7 cells xenografted in nude mouse assessed as tumor growth inhibition at 7.5 mg/kg, ip qd for 5 days relative to control; format: functional; details: 120 h, read-out: TGI
MCF7 [43] = assay: Antimitotic activity in human MCF7 cells assessed as mitotic index measured after 20 hrs by DAPI-staining based fluorescence microscopic analysis; format: functional, cell-based
MCF7 [44] = assay: (§1) Antimitotic activity in human MCF7 cells assessed as bipolar cells with uncompressed chromosomes at mitotic block IC50 measured after 20 hrs by immunofluorescence analysis relative to control; format: functional
[45] = as §1; format: functional
MCF7 [46] = assay: Antimitotic activity in human MCF7 cells assessed as decrease in microtubule polymer formation measured after 20 hrs by immunofluorescence analysis relative to control; format: functional, cell-based
MCF7 [47] = assay: Antimitotic activity in human MCF7 cells assessed as microtubule polymer at twice mitotic block IC50 measured after 20 hrs by immunofluorescence analysis relative to control; format: functional, cell-based

CC(C)(C)c1[nH]cnc1/C=C1\NC(=O)C(Cc2ccccc2)NC1=O (centres undefined)
MIC (Aspergillus fumigatus [1]): > 16 µg/mL | Ratio IC50 (MDA-MB-231): >20 - 100 | inhibition (INH) [2]: 65% | inhibition (INH) [3]: 37% | Activity [4]: 88% | Ratio IC50 (MES-SA [5]): 1.3 | EC50 [6]: 736 nM | Ratio IC50 (NCI-H292): >20 - 100 | MIC (Candida albicans [7]): > 32 µg/mL | MFC (Aspergillus fumigatus [8]): 0.125 µg/mL (≈ 0.369 µM) | EC50 [9]: 255 to 420 nM | Activity (HUVEC): Active | Activity [10]: 59.5% | EC50 [11]: 384 nM | MIC (Candida albicans [12]): > 32 µg/mL | MIC (Aspergillus fumigatus [13]): < 0.03 µg/mL | EC50 [14]: 255 nM | Ratio IC50 (B16-F10): >20 - 100 | Ratio IC50 (PC-3): >20 - 100 | Activity (Jurkat): Dose-dependent effect | inhibition (INH) [15]: 74% | IC50 [16]: 694 to 835 nM | EC50 [17]: 174 nM | MIC [18]: > 32 µg/mL | EC50 [19]: > 20000 nM | IC50 [20]: 622 nM | IC50 [21]: 165 nM | EC50 [22]: 175 nM | Ratio IC50 (HT-29): >20 - 100 | EC50 [23]: 122 to 144 nM | TGI (MCF7 [24]): Active | inhibition in vivo at 30 mg/kg [25]: 77.7% | Ratio IC50 (HL-60): 0.69 | IC50 [26]: 27.4 nM | EC50 [27]: 387 nM | Ratio IC50 (MES-SA/Dx5): 0.9 | cytotoxicity at 48 h [28]: 45% | EC50 [29]: > 20000 nM

CC(C)(c1[nH]cnc1/C=C1\NC(=O)[C@H](Cc2ccccc2)NC1=O)C1CO1 (stereo in doubt)
Drug metabolism [30]: Metabolite_Detected

CC(=O)O[C@H]1C(=O)[C@@]2(C)[C@H]([C@H](OC(=O)c3ccccc3)[C@]3(O)C[C@H](OC(=O)[C@H](O)[C@@H](NC(=O)c4ccccc4)c4ccccc4)C(C)=C1C3(C)C)[C@]1(OC(C)=O)CO[C@@H]1C[C@@H]2O [PACLITAXEL]
Activity (HeLa [31]): Active | Ratio IC50 (MCF7 [32]): >38 | Ratio IC50 (MES-SA [5]): 0.4 - 0.6 | Activity (HeLa [33]): Active | EC50 [9]: 16.2 nM | Ratio EC50 (MES-SA [34]): 417 | Ratio IC50 (MES-SA [35]): >8 - 3000 | IC50 [36]: 2.6 nM | IC50 [16]: 100 to 24000 nM | IC50 [20]: 2 to 40 nM | inhibition in vivo at 7.5 mg/kg [37]: 53% | EC50 [23]: 4.8 to 13 nM | EC50 [26]: 2.8 to 18 nM | Activity [38]: 35%

CC(=O)O[C@@]12CO[C@@H]1C[C@H](O)[C@@]1(C)C(=O)[C@H](O)C3=C(C)[C@@H](OC(=O)[C@H](O)[C@@H](NC(=O)OC(C)(C)C)c4ccccc4)C[C@@](O)([C@@H](OC(=O)c4ccccc4)[C@H]21)C3(C)C [DOCETAXEL ANHYDROUS]
inhibition in vivo at 7.5 mg/kg [39]: 26% | inhibition in vivo at […] [40]: 44.8% | inhibition in vivo at […] [41]: 26.1% | inhibition in vivo at 7.5 mg/kg [42]: 12 to 58% | TGI (MCF7 [24]): Active

COc1cc2c(c(OC)c1OC)-c1ccc(OC)c(=O)cc1[C@@H](NC(C)=O)CC2 [COLCHICINE]
inhibition (MCF7 [43]): Dose-dependent effect | MIC [18]: > 128 µg/mL | Activity (MCF7 [44]): Active | Activity [45]: 50% | Activity (MCF7 [46]): Dose-dependent effect | Activity (MCF7 [47]): Active
